Experimental data: patent publication US20080119515A1, “Heterocyclic Kinase Inhibitors: Methods of Use and Synthesis” (priority 2003, published 2008)

These molecules were tested against T1, ZAP-70 (Homo sapiens, UniProt P43403) (assay: DELFIA assay (ZAP-70 kinase, phosphorylation of biotinylated poly(glu,tyr))). Settings: ZAP-70 DELFIA, class symbols; read-out: Activity (IC50 in vitro).
T1 sequence (P43403 1-619): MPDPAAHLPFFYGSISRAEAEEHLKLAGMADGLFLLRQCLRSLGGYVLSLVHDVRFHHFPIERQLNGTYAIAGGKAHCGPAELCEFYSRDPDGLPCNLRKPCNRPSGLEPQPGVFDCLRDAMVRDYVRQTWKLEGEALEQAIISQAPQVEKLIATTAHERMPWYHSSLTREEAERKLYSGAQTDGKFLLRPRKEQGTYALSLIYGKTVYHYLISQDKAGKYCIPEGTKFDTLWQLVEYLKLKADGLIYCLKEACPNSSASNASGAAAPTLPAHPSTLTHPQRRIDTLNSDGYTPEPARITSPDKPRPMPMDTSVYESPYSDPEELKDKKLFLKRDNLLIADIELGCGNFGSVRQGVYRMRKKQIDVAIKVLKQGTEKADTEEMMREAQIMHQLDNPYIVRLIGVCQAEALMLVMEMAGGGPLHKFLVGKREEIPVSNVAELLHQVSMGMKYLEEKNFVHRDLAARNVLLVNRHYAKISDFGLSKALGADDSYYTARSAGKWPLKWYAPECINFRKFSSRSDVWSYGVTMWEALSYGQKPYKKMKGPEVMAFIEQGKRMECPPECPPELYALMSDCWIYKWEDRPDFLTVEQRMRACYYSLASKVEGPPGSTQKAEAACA
Assay type: biochemical
Description: Before initiation of kinase reactions, compounds were pre-incubated with ZAP-70. Pre-incubation reactions contained 62.5 mM Mops pH 7.0, 12.5 mM MgCl2, 12.5% glycerol, 3.1 nM ZAP-70, 62.5 nM biotinylated poly(glu,Tyr), 0.1 mg/ml BSA, 6.25% DMSO and […] compound in a total volume of […]. After a 10 minute room temperature incubation, 10 ml of 5 mM ATP was added to start the reaction. Reactions were incubated at room temperature for 30 minutes then terminated by addition of 5 ml 500 mM EDTA. The amount of phosphate transferred to biotinylated poly(glu,tyr) was measured using the Dissociation Enhanced Lanthanide Fluorescence Immuno-assay (DELFIA) from Perkin Elmer according to manufacturers protocol. Briefly, biotinylated […] was captured on streptavidin coated plates, washed twice, then incubated with Europium labeled-anti-phosphotyrosine antibody. Free antibody was removed with six washes, Europium was dissociated from the antibody, and Europium fluorescence was measured at using an excitation wavelength of 340 nm and an emission wavelength of 615 nm.
Molecule `N#Cc1ccc(-c2ccc3nc(N(Cc4ccccc4)Cc4ccccc4)cc(C(=O)N4CCC[C@H]4CN4CCCC4)c3c2)cc1` [Compound 210] has an IC50 greater than 10 µM.
With `C[C@@H](c1cccc2ccccc12)N(C)c1cc(C(=O)N2CCC[C@H]2CN2CCCC2)c2cc(-c3ccc(C#N)cc3)ccc2n1` [Compound 219] the IC50 was greater than 10 µM.
`N=C(NC1CC1)[C@@H]1CCCN1C(=O)c1cc(NCc2ccc(C(F)(F)F)cc2)nc2ccc(-c3ccc4c(c3)OCO4)cc12` [Compound 377] was tested, and the IC50 was greater than 10 µM.
Molecule `O=C(c1cc(NCc2ccccc2)nc2ccc(-c3ccc4c(c3)OCO4)cc12)N1CCC[C@H]1CNCc1ccccc1` [Compound 21] has an IC50 greater than 10 µM.
Work on `N#Cc1ccc(-c2ccc3nc(N[C@H](CO)Cc4ccccc4)cc(C(=O)N4CCC[C@H]4CN4CCCC4)c3c2)cc1` [Compound 316] yielded an IC50 of 1 to 10 µM.
`C[C@@H](Nc1cc(C(=O)N2CCC[C@H]2CN2CCCC2)c2cc(-c3ccc(C#N)cc3)ccc2n1)[C@@H](O)c1ccccc1` [Compound 214] gave an IC50 greater than 10 µM.
`O=C(c1cc(Nc2ccc(Oc3ccccc3)cc2)nc2ccc(-c3ccc4c(c3)OCO4)cc12)N1CCC[C@H]1CN1CCCC1` [Compound 51] gave an IC50 of less than 1 µM.
For `CC(=O)Nc1cccc(-c2ccc3nc(NCc4ccc(C(F)(F)F)cc4)cc(C(=O)N4CCC[C@H]4CN4CCCC4)c3c2)c1` [Compound 297], the IC50 was greater than 10 µM.
For `O=C(c1cc(NCCc2ccc(Cl)cc2Cl)nc2ccc(-c3ccc4c(c3)OCO4)cc12)N1CCC[C@H]1CN1CCCC1` [Compound 45], the IC50 was less than 1 µM.
`O=C(c1cc(NCc2ccc(Cl)cc2)nc2ccc(-c3ccc4c(c3)OCO4)cc12)N1CC[C@H]1CN1CCCC1` [Compound 374] showed an IC50 of 1 to 10 µM.
`O=C(c1cc(N2CCC[C@H]2CN2CCCC2)nc2ccc(-c3ccc4c(c3)OCO4)cc12)N1CCC[C@H]1CN1CCCC1` [Compound 89] was tested, and the IC50 was 1 to 10 µM.
`O=C(c1cc(Cc2ccc(Cl)cc2Cl)nc2ccc(-c3ccc4c(c3)OCO4)cc12)N1CCC[C@H]1CN1CCCC1` [Compound 401] gave an IC50 of less than 1 µM.
`CC(C)(C)/C=C/c1ccc2nc(NCc3ccc(C(F)(F)F)cc3)cc(C(=O)N3CCC[C@H]3CN3CCCC3)c2c1` [Compound 422] gave an IC50 greater than 10 µM.
For `O=C(c1cc(NCc2ccc(C(F)(F)F)cc2)nc2ccc(-c3ccc(O)cc3)cc12)N1CCC[C@H]1CN1CCCC1` [Compound 419], the IC50 was greater than 10 µM.
With `COc1cc(-c2ccc3nc(NCc4ccc(C(F)(F)F)cc4)cc(C(=O)N4CCC[C@H]4CN4CCCC4)c3c2)ccc1O` [Compound 418] the IC50 was greater than 10 µM.
With `N#Cc1ccc(-c2ccc3nc(NCc4ccc(C(F)(F)F)cc4)cc(C(=O)N4CCC[C@H]4CN4CCCC4)c3c2)cc1` [Compound 107] the IC50 was less than 1 µM.
With `CN(Cc1ccc(Cl)c(Cl)c1)c1cc(C(=O)N2CCC[C@H]2CN2CCCC2)c2cc(-c3ccc(C#N)cc3)ccc2n1` [Compound 248] the IC50 was greater than 10 µM.
In the case of `N#Cc1ccc(-c2ccc3nc(NCc4cc(Cl)cc(Cl)c4)cc(C(=O)N4CCC[C@H]4CN4CCCC4)c3c2)cc1` [Compound 189], the IC50 is reported as greater than 10 µM.
With `N#Cc1ccc(-c2ccc3nc(NC(CO)Cc4ccccc4)cc(C(=O)N4CCC[C@H]4CN4CCCC4)c3c2)cc1` (stereo partly shown) [Compound 315] the IC50 was less than 1 µM.
For `O=C(c1cc(N2CCOCC2)nc2ccc(-c3ccc4c(c3)OCO4)cc12)N1CCC[C@H]1CN1CCOCC1` [Compound 5], the IC50 was 1 to 10 µM.
Molecule `O=C(c1cc(NC2CCCC2)nc2ccc(-c3ccc4c(c3)OCO4)cc12)N1CCC[C@H]1CN1CCCC1` [Compound 28] has an IC50 greater than 10 µM.
In the case of `NC(=O)c1cc(C(=O)N2CCC[C@H]2CN2CCCC2)c2cc(-c3ccc4c(c3)OCO4)ccc2n1` [Compound 138], the IC50 is reported as greater than 10 µM.
For `CC(=O)N[C@H]1CCN(c2cc(C(=O)N3CCC[C@H]3CN3CCCC3)c3cc(-c4ccc5c(c4)OCO5)ccc3n2)C1` [Compound 69], the IC50 was greater than 10 µM.
`N#Cc1ccc(-c2ccc3nc(NCc4ccccc4C(F)(F)F)cc(C(=O)N4CCC[C@H]4CN4CCCC4)c3c2)cc1` [Compound 164] gave an IC50 greater than 10 µM.
`O=C(c1cc(NCCN2CCCCC2)nc2ccc(-c3ccc4c(c3)OCO4)cc12)N1CCC[C@H]1CN1CCCC1` [Compound 32] gave an IC50 greater than 10 µM.
